According to ChEMBL document CHEMBL1201862, “PubChem BioAssay data set” (2004):
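Five concentrations, 48 hours, 96-well plates. At the GI50, growth is halved.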 Active and inactive are the calls of the source. Rule as the data show it: active = GI50 up to about 1.1 µM and inactive = higher.

How the values were obtained:
Experiment in all cases: inhibition of tumour cell growth, NCI panel, 48 h
[1] = system: SNB-19
[2] = system: SK-MEL-28
[3] = system: HCT-15
[4] = system: M14
[5] = system: SF-539
[6] = system: DU-145
[7] = system: UACC-257
[8] = system: SR
[9] = system: NCI/ADR-RES
[10] = system: KM12
[11] = system: NCI-H226
[12] = system: MDA-MB-231
[13] = system: LOX IMVI
[14] = system: HOP-62
[15] = system: SF-268
[16] = system: MCF7
[17] = system: SN12C
[18] = system: MOLT-4
[19] = system: K562
[20] = system: PC-3
[21] = system: EKVX
[22] = system: NCI-H23
[23] = system: HT-29
[24] = system: UO-31
[25] = system: UACC-62
[26] = system: MDA-MB-435
[27] = system: SW-620
[28] = system: BT-549
[29] = system: COLO 205
[30] = system: HL-60
[31] = system: ACHN
[32] = system: SK-OV-3
[33] = system: HCC 2998
[34] = system: A549
[35] = system: TK-10
[36] = system: NCI-H460
[37] = system: OVCAR-3
[38] = system: RXF 393
[39] = system: OVCAR-5
[40] = system: SNB-75
[41] = system: IGROV-1
[42] = system: 786-0
[43] = system: Malme-3M
[44] = system: NCI-H522
[45] = system: HCT-116
[46] = system: CAKI-1
[47] = system: T47D
[48] = system: SF-295
[49] = system: U-251
[50] = system: Hs-578T
[51] = system: SK-MEL-2
[52] = system: OVCAR-8
[53] = system: OVCAR-4

## O=C(CNCc1ccccc1)Oc1c(Cl)c(Cl)c(Cl)c(Cl)c1Cl
[1]
  GI50: 28.6 µM (inactive)
[2]
  GI50: 38.5 µM (inactive)
[3]
  GI50: 25.4 µM
[4]
  GI50: 77.8 µM (inactive)
[5]
  GI50: 32.3 µM (inactive)
[6]
  GI50: 15.9 µM (inactive)
[7]
  GI50: 23.1 µM (inactive)
[8]
  GI50: 21.8 µM (inactive)
[9]
  GI50: 33.7 µM (inactive)
[10]
  GI50: 21.8 µM (inactive)
[11]
  GI50: 28.4 µM (inactive)
[12]
  GI50: 25.4 µM (inactive)
[13]
  GI50: 29.6 µM (inactive)
[14]
  GI50: 76.7 µM (inactive)
[15]
  GI50: 37.5 µM (inactive)
[16]
  GI50: 38.5 µM (inactive)
[17]
  GI50: 31.2 µM (inactive)
[18]
  GI50: 22.3 µM (inactive)
[19]
  GI50: 34.8 µM (inactive)
[20]
  GI50: 22.1 µM (inactive)
[21]
  GI50: 22.4 µM (inactive)
[22]
  GI50: > 100 µM (inactive)
[23]
  GI50: 32.7 µM (inactive)
[24]
  GI50: 20.6 µM (inactive)
[25]
  GI50: 21.5 µM (inactive)
[26]
  GI50: 35.2 µM (inactive)
[27]
  GI50: 32.5 µM (inactive)
[28]
  GI50: 17.3 µM (inactive)
[29]
  GI50: 25 µM (inactive)
[30]
  GI50: 23.8 µM (inactive)
[31]
  GI50: 23.1 µM (inactive)
[32]
  GI50: 47 µM (inactive)
[33]
  GI50: 22.8 µM (inactive)
[34]
  GI50: 30.4 µM (inactive)
[35]
  GI50: 37.7 µM (inactive)
[36]
  GI50: 38.9 µM (inactive)
[37]
  GI50: 22.5 µM (inactive)
[38]
  GI50: 74.8 µM (inactive)
[39]
  GI50: 66.5 µM (inactive)
[40]
  GI50: 33.6 µM (inactive)
[41]
  GI50: 33.1 µM (inactive)
[42]
  GI50: 93.1 µM (inactive)
[43]
  GI50: 26 µM (inactive)
[44]
  GI50: 25.3 µM (inactive)
[45]
  GI50: > 100 µM (inactive)
[46]
  GI50: 25.3 µM (inactive)
[47]
  GI50: 25.7 µM (inactive)
[48]
  GI50: 27.2 µM (inactive)
[49]
  GI50: 28.5 µM (inactive)
[50]
  GI50: 17.3 µM (inactive)
[51]
  GI50: 29.2 µM (inactive)
[52]
  GI50: 21.4 µM (inactive)
[53]
  GI50: 44.1 µM (inactive)
